US20090143361A1, “Pyrido[3,2-E]Pyrazines, Process For Preparing The Same, And Their Use As Inhibitors Of Phosphodiesterase 10” (ELBION GMBH, priority 2007, published 2009)
Like-named read-outs stand apart in the source and are kept apart here.

Target: PDE10 from pig striatum (Sus scrofa, UniProt A0A287B941)
Assay: Inhibition of PDE10 from pig striatum ([3H]-cAMP SPA)
Assay type: biochemical
Protocol: Phosphodiesterase isoenzyme 10 (PDE10) activity was determined in preparations of human recombinant PDE10A and PDE10 from pig striatum, respectively.
Striatum from male hybrid pigs (150 kg) were collected and frozen at −70° C.
At the day of preparation 0.5 g striatum was homogenised in 10 ml 50 mM Tris/Mg-buffer at 4° C. and centrifuged for one hour at 100000 g. The supernatant was removed and the pellet was resuspended in the same buffer, but containing 1% Triton and incubated for 45 min at 4° C. The membrane fraction was applied onto a 5 ml Hi Trap™ QHP column at the Akta-FPLC. After washing the column the bound PDE protein was eluted with an increasing sodium chloride gradient (O mM-500 mM sodium chloride) in 50 mM Tris/Mg-buffer at 4° C. in the presence of 1% Triton. […] The fractions with PDE10-activity were pooled and frozen in aliquots until use at −20° C.
(§1) PDE10 activity was determined in a one step procedure in microtiterplates. […] Nonspecific activity was tested without the enzyme. The reaction was initiated by addition of the substrate solution and was carried out at 37° C. for 30 minutes. Enzymatic activity was stopped by addition of 25 μl YSi-SPA-beads (Amersham-Pharmacia). One hour later the mixture was measured in a liquid scintillation counter for microtiterplates (Microbeta Trilux). To pipette the incubation mixture a robot Biomek (Fa. Beckman) is used. […] For determination of IC50 values the Hill-plot, 2-parameter-model, was used.
The phosphodiesterase isoenzyme 10 (PDE10) activity was determined in preparations of rat, pig and guinea pig striatum respectively. Striatum from male Wistar rats (180-200 g), male hybrid pigs (150 kg) and male guinea pigs (CRL (HA), 500 g) respectively were collected and frozen at −70° C.
At the day of preparation 0.5 g striatum was homogenized in 10 ml 50 mM Tris/Mg-buffer at 4° C. and centrifuged for one hour at 100000 g. The supernatant is called the cytosolic fraction and was removed and stored on ice. The pellet was resuspended in the same buffer, but containing 1% Triton and incubated for 45 min at 4° C. Both fractions were independently applied onto a 5 ml Hi Trap™ QHP column at the Akta-FPLC. After washing the columns the bound PDE protein was eluted with an increasing sodium chloride gradient (0 mM-500 mM sodium chloride) in 50 mM Tris/Mg-buffer at 4° C. for the cytosolic fraction and in the presence of 1% Triton for the membrane fraction. […] The fractions with PDE10-activity were pooled and frozen in aliquots until use at −20° C.
as §1, with “YSi-SPA beads” for “YSi-SPA-beads”

[1] = Table 8, read-out: PDE10 pig IC50
[2] = Table 9, cells marked pPDE10, read-out: IC50 (nM) (pPDE10)

Row | Structure (SMILES) | IC50 [1] | IC50 [2]
1 | COc1ccc(C#Cc2nc(C)c3c(C)nc4ccc(OC)nc4n23)cc1 [Example 77, 2-Methoxy-9-[(4-methoxyphenyl)ethynyl]-6,7-dimethylimidazo[1,5-a]pyrido[3,2-e]pyrazine] | 10 to 100 nM | 
2 | COc1ccc2nc(C)c3c(C)nc(-c4cc(C)ccc4Cl)n3c2n1 [Example 78, 9-(2-Chloro-5-methylphenyl)-2-methoxy-6,7-dimethylimidazo[1,5-a]pyrido[3,2-e]pyrazine] | < 10 nM | 
3 | COc1ccc2nc(C)c3c(C)nc(-c4cc(Cl)ccc4C)n3c2n1 [Example 79, 9-(5-Chloro-2-methylphenyl)-2-methoxy-6,7-dimethylimidazo[1,5-a]pyrido[3,2-e]pyrazine] | < 10 nM | 
4 | COc1ccc2nc(C)c3c(C)nc(-c4ccc(Cl)cc4C)n3c2n1 [Example 80, 9-(4-Chloro-2-methylphenyl)-2-methoxy-6,7-dimethylimidazo[1,5-a]pyrido[3,2-e]pyrazine] | < 10 nM | 
5 | COc1ccc2nc(C)c3c(C)nc(-c4cc(F)ccc4C)n3c2n1 [Example 81, 9-(5-Fluoro-2-methylphenyl)-2-methoxy-6,7-dimethylmidazo[1,5-a]pyrido[3,2-e]pyrazine] | < 10 nM | 
6 | COc1ccc2nc(C)c3c(C)nc(-c4ccc(F)cc4C)n3c2n1 [Example 82, 9-(4-Fluoro-2-methylphenyl)-2-methoxy-6,7-dimethylmidazo[1,5-a]pyrido[3,2-e]pyrazine] | < 10 nM | 
7 | COc1ccc2nc(C)c3c(C)nc(-c4cc(F)ccc4OC)n3c2n1 [Example 83, 9-(5-Fluoro-2-methoxyphenyl)-2-methoxy-6,7-dimethylimidazo[1,5-a]pyrido[3,2-e]pyrazine] | 10 to 100 nM | 
8 | COc1ccc2nc(C)c3c(C)nc(-c4cc(Cl)ccc4OC)n3c2n1 [Example 84, 9-(5-Chloro-2-methoxyphenyl)-2-methoxy-6,7-dimethylimidazo[1,5-a]pyrido[3,2-e]pyrazine] | 10 to 100 nM | 
9 | COc1ccc2nc(C)c3c(C)nc(-c4ccc(C(N)=O)cc4)n3c2n1 [Example 85, 4-(2-Methoxy-6,7-dimethylimidazo[1,5-a]pyrido[3,2-e]pyrazin-9-yl)benzamide] | < 10 nM | 
10 | COc1ccc2nc(C)c3c(C)nc(-c4ccc(F)cc4OC)n3c2n1 [Example 86, 9-(4-Fluoro-2-methoxyphenyl)-2-methoxy-6,7-dimethylmidazo[1,5-a]pyrido[3,2-e]pyrazine] | 10 to 100 nM | 
11 | COc1ccc2nc(C)c3c(C)nc(-c4cccc(Cl)c4C)n3c2n1 [Example 87, 9-(3-Chloro-2-methylphenyl)-2-methoxy-6,7-dimethylimidazo[1,5-a]pyrido[3,2-e]pyrazine] | < 10 nM | 
12 | COc1ccc2nc(C)c3c(C)nc(-c4cccc(F)c4C)n3c2n1 [Example 88, 9-(3-Fluoro-2-methylphenyl)-2-methoxy-6,7-dimethylmidazo[1,5-a]pyrido[3,2-e]pyrazine] | < 10 nM | 
13 | COc1ccc2nc(C)c3c(C)nc(-c4cccc(Cl)c4Cl)n3c2n1 [Example 89, 9-(2,3-dichlorophenyl)-2-methoxy-6,7-dimethylimidazo[1,5-a]pyrido[3,2-e]pyrazine] | < 10 nM | 
14 | COc1ccc2nc(C)c3c(C)nc(-c4ccc(Cl)cc4OC)n3c2n1 [Example 90, 9-(4-Chloro-2-methoxyphenyl)-2-methoxy-6,7-dimethylimidazo[1,5-a]pyrido[3,2-e]pyrazine] | 10 to 100 nM | 
15 | COc1ccc2nc(C)c3c(C)nc(-c4ccc(Cl)cc4C(F)(F)F)n3c2n1 [Example 91, 9-[4-Chloro-2-(trifluoromethyl)phenyl]-2-methoxy-6,7-dimethylimidazo[1,5-a]pyrido[3,2-e]pyrazine] | < 10 nM | 
16 | COc1ccc2nc(C)c3c(C)nc(-c4ccc(Cl)s4)n3c2n1 [Example 92, 9-(5-Chloro-2-thienyl)-2-methoxy-6,7-dimethylimidazo[1,5-a]pyrido[3,2-e]pyrazine] | 10 to 100 nM | 
17 | COc1ccc2nc(C)c3c(C)nc(-c4cccc(C(N)=O)c4)n3c2n1 [Example 93, 3-(2-Methoxy-6,7-dimethylimidazo[1,5-a]pyrido[3,2-e]pyrazin-9-yl)benzamide] | < 10 nM | 

Row | Structure (SMILES) | IC50 [1] | IC50 [2]
18 | COc1cccc(C#Cc2nc(C)c3c(C)nc4ccc(OC)nc4n23)c1 [Example 94, 2-Methoxy-9-[(3-methoxyphenyl)ethynyl]-6,7-dimethylimidazo[1,5-a]pyrido[3,2-e]pyrazine] | > 100 nM | 
19 | COc1ccc2nc(C)c3c(C)nc(C#CC4CCCCC4)n3c2n1 [Example 95, 9-(Cyclohexylethynyl)-2-methoxy-6,7-dimethylimidazo[1,5-a]pyrido[3,2-e]pyrazine] | > 100 nM | 
20 | COc1ccc2nc(C)c3c(C)nc(C#Cc4ccccc4Cl)n3c2n1 [Example 96, 9-[(2-Chlorophenyl)ethynyl]-2-methoxy-6,7-dimethylimidazo[1,5-a]pyrido[3,2-e]pyrazine] | 10 to 100 nM | 
21 | COc1ccc2nc(C)c3c(C)nc(C#CC4CC4)n3c2n1 [Example 97, 9-(Cyclopropylethynyl)-2-methoxy-6,7-dimethylmidazo[1,5-a]pyrido[3,2-e]pyrazine] | 10 to 100 nM | 
22 | COc1ccc2nc(C)c3c(C)nc(C#Cc4ccccc4OC)n3c2n1 [Example 98, 2-Methoxy-9-[(2-methoxyphenyl)ethynyl]-6,7-dimethylimidazo[1,5-a]pyrido[3,2-e]pyrazine] | > 100 nM | 
23 | COc1ccc2nc(C)c3c(C)nc(C#Cc4ccccc4C)n3c2n1 [Example 99, 2-Methoxy-6,7-dimethyl-9-[(2-methylphenyl)ethynyl]imidazo[1,5-a]pyrido[3,2-e]pyrazine] | > 100 nM | 
24 | CNC(=O)c1cccc(-c2nc(C)c3c(C)nc4ccc(OC)nc4n23)c1 [Example 100, 3-(2-Methoxy-6,7-dimethylimidazo[1,5-a]pyrido[3,2-e]pyrazin-9-yl)-N-methylbenzamide] | > 100 nM | 
25 | CCNC(=O)c1cccc(-c2nc(C)c3c(C)nc4ccc(OC)nc4n23)c1 [Example 101, N-Ethyl-3-(2-methoxy-6,7-dimethylimidazo[1,5-a]pyrido[3,2-e]pyrazin-9-yl)benzamide] | 10 to 100 nM | 
26 | CONC(=O)c1cccc(-c2nc(C)c3c(C)nc4ccc(OC)nc4n23)c1 [Example 102, N-Methoxy-3-(2-methoxy-6,7-dimethylimidazo[1,5-a]pyrido[3,2-e]pyrazin-9-yl)benzamide] | 10 to 100 nM | 
27 | COc1ccc2nc(C)c3c(C)nc(-c4cccc(C(=O)NC(C)C)c4)n3c2n1 [Example 103, N-Isopropyl-3-(2-methoxy-6,7-dimethylimidazo[1,5-a]pyrido[3,2-e]pyrazin-9-yl)benzamide] | 10 to 100 nM | 
28 | COc1ccc2nc(C)c3c(C)nc(-c4cccc(C(=O)N(C)C)c4)n3c2n1 [Example 104, 3-(2-Methoxy-6,7-dimethylimidazo[1,5-a]pyrido[3,2-e]pyrazin-9-yl)-N,N-dimethylbenzamide] | > 100 nM | 
29 | COc1ccc2nc(C)c3c(C)nc(-c4cccc(C(=O)N5CCCCC5)c4)n3c2n1 [Example 105, 2-Methoxy-6,7-dimethyl-9-[3-(piperidin-1-ylcarbonyl)phenyl]imidazo[1,5-a]pyrido[3,2-e]pyrazine] | > 100 nM | 
30 | COc1ccc2nc(C)c3c(C)nc(-c4cc(C(N)=O)ccc4F)n3c2n1 [Example 106, 4-Fluoro-3-(2-methoxy-6,7-dimethylimidazo[1,5-a]pyrido[3,2-e]pyrazin-9-yl)benzamide] | < 10 nM | 
31 | CNC(=O)c1ccc(F)c(-c2nc(C)c3c(C)nc4ccc(OC)nc4n23)c1 [Example 107, 4-Fluoro-3-(2-methoxy-6,7-dimethylimidazo[1,5-a]pyrido[3,2-e]pyrazin-9-yl)-N-methylbenzamide] | > 100 nM | 
32 | COc1ccc2nc(C#N)c3c(C)nc(-c4ccccc4Cl)n3c2n1 [Example 111, 9-(2-chlorophenyl)-2-methoxy-7-methylimidazo[1,5-a]pyrido[3,2-e]pyrazine-6-carbonitrile] |  | < 10 nM
33 | COc1ccc2nc(C#N)c3c(C)nc(-c4ccc(Cl)cc4Cl)n3c2n1 [Example 112, 9-(2,4-dichlorophenyl)-2-methoxy-7-methylimidazo[1,5-a]pyrido[3,2-e]pyrazine-6-carbonitrile] |  | < 10 nM
